Measurements taken from patent US11939612B2, “Process for preparing sphingolipids” (Evonik Operations GmbH, priority 2018, dated 2024).

Experiments:
[1] = Hair breakage measurement (Cyclic Tester), repair after acidic straightening; settings: acid-straightened ethnic hair, test conditioner, 5 treatments, FIG. 3
Procedure: Ethnic hair was acid-straightened and aftertreated with a conditioner that contained one of the claimed compositions with elevated triglyceride content, consisting of: 10% olive oil-based ceramide (Example 2). For comparison, the process was conducted with a corresponding amount of pure ceramide NG or pure olive oil.
The repair effect and the boosting of the CMC complex by means of Hair fatigue alpha were measured.
Ethnic hair was chemically straightened. For this purpose, an acidic standard formulation having a pH of about 1-2 was used in combination with the use of a straightening iron. Subsequently, the hair was treated as follows: • 1. Washing with a shampoo consisting of sodium lauryl ether sulfate and cocamidopropylbetaine. • 2. Application of the test conditioner; the contact time was 5 min. Subsequently, the hair tresses were rinsed under flowing tap water at a temperature of 37° C. for 1 min. • 3. Drying of the hair tresses with a hairdryer for 3 minutes.
These three treatment steps were conducted a total of 5×. […]
For quantification of the repair effect, a hair breakage measurement was conducted (Cyclic Tester, Diastron Limited, UK). […] The number of extension cycles survived is recorded and serves to calculate the probability of survival. […]

[2] = Solubility temperature and crystal-free incorporation into cosmetic oils; format: physicochemical; settings: for Appearance at RT: after cooling
Procedure: For this purpose, the solubility temperatures of the sphingolipids were ascertained: A final concentration of 0.1% ceramide in cosmetic oil was chosen. The ceramide compositions were heated and stirred gradually in the cosmetic oils in a beaker on a hotplate. The solubility temperature was attained as soon as the solution was clear. Subsequently, the mixture was stirred at the solubility temperature ascertained for 1 hour. After it had cooled down to room temperature, the formulation was examined.

[3] = 0.1% ceramide in Mineral Oil (non-polar)
[4] = 0.1% ceramide in Octyldodecanol (polar)
[5] = 0.1% ceramide in TEGOSOFT APM (polar)
[6] = 0.1% ceramide in TEGOSOFT CT (polar-medium polar)
[7] = 0.1% ceramide in TEGOSOFT M (medium polar)
[8] = 0.1% ceramide in TEGOSOFT OS (non-polar)

Solubility temperature [2, 3] [°C]	Appearance at RT [2, 3]	Solubility temperature [2, 4] [°C]	Appearance at RT [2, 4]	Solubility temperature [2, 5] [°C]	Appearance at RT [2, 5]	Solubility temperature [2, 6] [°C]	Appearance at RT [2, 6]	Solubility temperature [2, 7] [°C]	Appearance at RT [2, 7]	Solubility temperature [2, 8] [°C]	Appearance at RT [2, 8]	Substance	repair effect (probability of survival in the hair breakage test) [1]
–	–	–	–	–	–	–	–	–	–	–	–	ceramide NG	not able to achieve any repair effect
110	crystals	70	crystals	65	crystals	95	crystals	90	crystals	100	crystals	ceramide NP [Pure ceramide NP]	–
